{
  "source": "patent US20130004424A1",
  "about": "“METHODS FOR DETERMINING AGENTS TARGETING MENA ISOFORMS AND USES THEREOF FOR DIAGNOSIS AND TREATMENT OF METASTATIC TUMORS” (priority 2010, published 2013)",
  "key": {"Mena^INV cells [1]": {"tested_on": "Mena^INV cells", "test": "in vivo invasion assay, collection needle containing EGF and erlotinib", "conditions": "Mena^INV cells vs MTLn3-EGFP control cells; collection needle contained both EGF and erlotinib", "description": "(B) Graphic of in vivo assay with needle collection. Primary tumor may be xenograft.\nCollection needle contained both EGF and erlotinib. MTLn3-EGFP cells are control. **p<0.01, ***p<0.001.\nSince cells expressing Mena^+ or Mena^INV/+ will move up an EGF gradient, when the cells expressing Mena^+ or Mena^INV/+ are in vivo, the cells expressing Mena^+ or Mena^INV/+ will move up the imposed EGF gradient and can be needle collected. If the putative agent does in fact inhibit Mena^+ or Mena^INV/+, the sensitivity of cells expressing Mena^+ or Mena^INV/+ drops and fewer cells will move up the EGF gradient."}, "Mena^INV cells [2]": {"tested_on": "Mena^INV cells", "conditions": "both in vitro and in vivo; cited from earlier work"}},
  "data": [
    {"smiles": "C#Cc1cccc(Nc2ncnc3cc(OCCOC)c(OCCOC)cc23)c1", "note": "[erlotinib]", "values": [
      {"measurement": "sensitivity of in vivo invasion to inhibition by erlotinib", "setting": "Mena^INV cells [1]", "result": "less sensitive to inhibition"},
      {"measurement": "resistance of cells to EGFR inhibitor", "setting": "Mena^INV cells [2]", "result": "exhibit resistance"}
    ]}
  ]
}
